Patent US20240309014A1, “MACROCYCLIC COMPOUNDS AND USES THEREOF” (President and Fellows of Harvard College, priority 2017, published 2024)

Key:
[1] = system: human breast cancer cell line HCC1954; assay: HCC1954 growth inhibition assay (Test Example 3); assay type: cell-based; details: 3 days incubation, CellTiter-Glo
Protocol: In this assay, the growth inhibitory activity of test compounds in a human breast cancer cell line HCCl954 was measured. HCC1954 cells were maintained in an RPMI-1640 medium modified to contain 2 mM L-glutamine, 10 mM HEPES, 1 mM sodium pyruvate, 4500 mg/L glucose, and 1500 mg/L sodium bicarbonate (ATCC 30-2001) containing 10% fetal bovine serum (FBS: Nichirei, 12D168), and penicillin and streptomycin in a 5% CO2 incubator (37° C.). To each well of a 96 well plate (Becton, Dickinson and Company, 353219), 75 μL of HCC1954 cell suspension adjusted to a concentration of 4×10^4 cells/mL with the culture medium was added, and the cells were incubated overnight in a 5% CO2 incubator (37° C.). On the next day, 25 μL of Compound (1) or Halichondrin B in three-fold dilution series suspended in the culture medium was added to each well, and the resultant was incubated for 3 days in a 5% CO2 incubator (37° C.). Then, cell viability was determined by CellTiter-Glo® Luminescent Cell Viability Assay (Promega) with EnVision 2103 Multilabel Reader (Perkin-Elmer, Wellesley, MA). Value of the wells containing cells without adding the test compounds was defined as 100% and the value of the wells containing no cells was defined as 0%. The concentration of the test compound necessary for inhibiting the cell growth by 50% (i.e., an IC50 value) was calculated, and shown in Table 3.

[2] = system: FaDu subcutaneous xenograft; assay: FaDu subcutaneous xenograft model in combination with cetuximab; assay type: in vivo, nude mice
Source text: (§1) A human squamous cell carcinoma of the head and neck (SCCHN) cell line FaDu, which had been cultured in an RPMI-1640 medium containing 10% FBS, and penicillin and streptomycin, was adjusted to a concentration of 5×10^7 cells/mL with Hanks' Balanced Salt Solution to prepare a cell suspension. The cell suspension was inoculated in a volume of 100 L into a subcutaneous part of a right flank of nude mice, 7 weeks of ages (CAnN.Cg-Foxnlnu/CrlCrlj, female, Charles River Laboratories Japan Inc.). Ten days after cell inoculation, the shortest diameter and the longest diameter of a tumor in each mouse were measured by using an electronic digital caliper (Digimatic™ caliper, Mitutoyo Corporation), so as to calculate the volume of the tumor in accordance with the following calculation formulae: […]
On the basis of the volumes of tumors obtained on the first day of administration, the mice were grouped such that averages of the tumor volumes were substantially equal among the groups. Each test compound was dissolved in DMSO and a solution was stored at the freezer before use. Immediately before the administration, the stock solution was diluted in saline with 100 μM of hydroxypropyl-β-cyclodextrin. […] Incidentally, the experiment was conducted on groups each consisting of 4 mice.

[3] = system: α-SMA positive-CAFs in FaDu tumor; assay: Effect on α-SMA positive-CAFs in the FaDu subcutaneous model (Test Example 10); assay type: in vivo, nude mice; details: two days after administration
Protocol: A human squamous cell carcinoma of the head and neck (SCCHN) cell line FaDu, which had been cultured in an RPMI-1640 medium containing 10% FBS, and penicillin and streptomycin, was adjusted to a concentration of 5×10^7 cells/mL with PBS to prepare a cell suspension. The cell suspension was inoculated in a volume of 100 μL into a subcutaneous part of a right flank of nude mice, 5 to 6 weeks of ages (CAnN.Cg-Foxnlnu/CrlCrlj, female, Charles River Laboratories Japan, Inc.). Ten days after cell inoculation, a test compound in saline with 100 μM of hydroxypropyl-β-cyclodextrin was intravenously administered at ½ MTD and MTD. The experiment was conducted on groups each consisting of 3 mice. Two days after administration, tumor samples were collected and fixed with IHC Zinc Fixative (BD Pharmingen) at 4° C. for 24 hr. Paraffin-embedded tissues were sectioned ([…]), mounted on positively charged slides, and air-dried for 6 hr. Immunohistochemical staining of α-SMA was conducted using Ventana autostainer model Discover XT (Roche Diagnostics). Sections were deparaffinized, conditioned and the antigens were retrieved with proprietary buffers, EZPrep and CC1 (Ventana Medical Systems). Mouse anti-α-SMA monoclonal antibody conjugated with alkaline phosphatase (clone 1A4, Sigma) was applied at 5 μg/mL. Sections were incubated with the antibody for 6 hr. The detection was performed with RedMap kit (Ventana Medical Systems, Inc). Sections were dehydrated in graded ethanols, defatted in xylene replacement and covered with DPX (Merck KGaA). The serial tumor slices were deparaffinized and stained with Mayer's hematoxylin (Muto Pure Chemicals) for 1 min. Sections were dehydrated in graded ethanols, defatted in xylene replacement and covered with DPX (Merck KGaA).
Immunostained slides were scanned using Vectra 2 Automated Slide Imaging System (Perkin Elmer Inc.). The area of the α-SMA-positive region in the whole tumor was quantified by counting the α-SMA-positive objects using inForm 2 software (PerkinElmer Inc.). Area of the tumor region was measured by assessing the hematoxylin-staining area using inForm 2 software (PerkinElmer Inc.). The area of the α-SMA positive region was normalized by the area of the tumor region. A suppression rate of the α-SMA positive area of the test compound-dosing group was calculated with the below formula, and shown in Table 10.

[4] = system: FaDu subcutaneous xenograft; assay: Antitumor effects in FaDu subcutaneous xenograft model as monotherapy; assay type: in vivo, nude mice; details: intravenous at MTD: Halichondrin B 0.05 mg/kg, Compound (1) 0.2 mg/kg
Protocol: as §1, with “of 4.8×10^7” for “of 5×10^7”, “100 μL” for “100 L”, “Inc.). Nine” for “Inc.). Ten”
On the basis of the volumes of tumors obtained on the first day of administration, the mice were grouped such that averages of the tumor volumes were substantially equal among the groups. Each test compound was dissolved in DMSO and a solution was stored at the freezer before use. Immediately before the administration, the stock solution was diluted in saline with 100 μM of hydroxypropyl-β-cyclodextrin. Each evaluation sample was intravenously administered at a maximum tolerable dose (MTD). Incidentally, the experiment was conducted on groups each consisting of 4 mice.

[5] = ¼ MTD i.v. (Halichondrin B 0.0125 mg/kg, Compound (1) 0.05 mg/kg) + cetuximab 20 mg/kg
[6] = ½ MTD i.v. (Halichondrin B 0.025 mg/kg, Compound (1) 0.1 mg/kg) + cetuximab 20 mg/kg
[7] = MTD i.v. (Halichondrin B 0.05 mg/kg, Compound (1) 0.20 mg/kg)
[8] = ½ MTD i.v. (Halichondrin B 0.025 mg/kg, Compound (1) 0.10 mg/kg)

| Compound | IC50 [1] [nM] | Tumor Regression on day 35 (%) [2, 5] [%] | Tumor Regression on day 35 (%) [2, 6] [%] | Suppression rate of α-SMA positive area (%) [3, 7] [%] | Suppression rate of α-SMA positive area (%) [3, 8] [%] | Tumor Regression (%) [4] [%] | IC50 ([1]; Homo sapiens, HCC1954, 72 h) [nM] |
| --- | --- | --- | --- | --- | --- | --- | --- |
| C=C1C[C@@H]2CC[C@@]34C[C@H]5O[C@H]6[C@@H](O3)[C@H]3O[C@H](CC[C@@H]3O[C@H]6[C@H]5O4)CC(=O)O[C@@H]3[C@@H](C)[C@@H]4O[C@@H]5C[C@]6(C[C@@H]7O[C@]8(C[C@H](C)[C@@H]9O[C@H]([C@@H](O)C[C@@H](O)CO)C[C@@H]9O8)C[C@H](C)[C@@H]7O6)O[C@@H]5C[C@@H]4O[C@H]3C[C@H]3O[C@@H](CC[C@@H]1O2)C[C@@H](C)C3=C [Halichondrin B, reference compound] | 0.154 | −38 | −2 | 3 | 7 | 0 |  |
| C=C1C[C@@H]2CC[C@@]34C[C@H]5O[C@H]6[C@@H](O3)[C@H]3O[C@H](CC[C@@H]3O[C@H]6C5O4)CC(=O)O[C@@H]3[C@@H](C)[C@@H]4O[C@@H]5C[C@]6(C[C@@H]7O[C@]8(C[C@H](C)[C@@H]9O[C@H](CN)[C@H](O)C[C@@H]9O8)C[C@H](C)[C@@H]7O6)O[C@@H]5C[C@@H]4O[C@H]3C[C@H]3O[C@@H](CC[C@@H]1O2)C[C@@H](C)C3=C (stereo in doubt) [Compound (1)] |  | 38 | 60 | 28 | 21 | 43 | 0.0668 |
